Test results taken from patent US20240109934A1, “ANTIBIOTICS WITH IMPROVED DRUG RESISTANCE PROFILE” (priority 2021, published 2024).
Like-named read-outs stand apart in the source and are kept apart here.

Tests used:
[1] = test system: human foreskin fibroblasts (HFF-1); test: Cell viability, Alamar Blue assay; format: cell-based; conditions: 72 h incubation, error SEM n = 2, listed as FA(1), read-out: IC50, Mammalian Toxicity in HFF-1
Procedure: Cell Culture. HFF-1 cells were obtained from ATCC. HFF-1 cells were grown in DMEM with 15% fetal bovine serum (Gemini Benchmark, Cat #100-106), 100 U/mL penicillin, and 100 μg/mL streptomycin. All cells were cultured at 37° C. in a 5% CO2 environment. Media was prepared by the University of Illinois School of Chemical Sciences Cell Media Facility.
Cell Viability. Cells were harvested, seeded in a 96 well-plate and allowed to adhere. Cells were treated with investigational compounds in DMSO (1% final concentration). Cells were incubated for 72 h before viability was assessed by the Alamar Blue Assay. Raptinal ([…]) was used as a dead control.

[2] = test system: clinical isolates of S. aureus; conditions: cited from earlier work
S. aureus ATCC 29213 = test: Resistance frequency, large inoculum method; format: cell-based
Procedure: Selection of Resistant Mutants. Resistant mutants were selected via the large inoculum method. Briefly, S. aureus ATCC 29213 (1×10^9 CFU) were plated on 100 mm plates of LB agar containing 4, 2, 1, 0.5, and 0.25 μg/mL.

Mouse MTD / tolerability = conditions: mice
Procedure: The protocol was approved by the IACUC at the University of Illinois at Urbana-Champaign (Protocol Number: 16144 and 19181). In these studies, 10- to 12-week-old female C57BL/6 mice purchased from Charles River were used. The maximum tolerated dose (MTD) of single compound was determined first. […] All the mice were monitored for signs of toxicity for 2 weeks. For multiple doses, the compound was given by daily IP for 4 consecutive days, and mice were monitored for signs of toxicity for 1 month. MTD was the highest dosage with acceptable toxicity (e.g., <20% weight loss).

For `CC(=O)O[C@H]1C[C@@]2(C)[C@@H](C[C@@H](O)[C@H]3[C@@]4(C)CC[C@@H](O)[C@@H](C)[C@@H]4CC[C@@]32C)/C1=C(\CCC=C(C)C)C(=O)O` [FA, Fusidic acid], the IC50 [1] is listed as 146 ± 11 µM, the “S. aureus strains susceptible” value ([2]; United States, analysis conducted in 2011) is listed as 99.7% and the MIC range ([2]; staphylococcal clinical isolates that carry the fusC gene) is listed as 2 to 64 µg/mL. For the same molecule, the MIC range ([2]; strains that possess the fusB gene) was 4 to 1024 µg/mL.
With `CC(=O)O[C@H]1C[C@@]2(C)[C@@H](C[C@@H](O)[C@H]3[C@@]4(C)CC[C@@H](O)[C@@H](C)[C@@H]4CC[C@@]32C)/C1=C(\CCC=C1CCCC1)C(=O)O` [FA-CP, (Z)-2-((3R,4S,5S,8S,9S,10S,11R,13R,14S,16S)-16-acetoxy-3,11-dihydroxy-4,8,10,14-tetramethylhexadecahydro-17H-cyclopenta[a]phenanthren-17-ylidene)-5-cyclopentylidenepentanoic acid] the “Resistance frequency relative to FA” value (S. aureus ATCC 29213; at 2× and 32× the MIC) was “modest improvement in resistance frequency”, the “Resistance frequency relative to FA” value (S. aureus ATCC 29213; head-to-head with FA, 2×-32× the MIC) was “improvement in resistance frequency relative to FA” and the Tolerability (Mouse MTD / tolerability; 50 mg/kg IP once-a-day for 4 consecutive days) was “well tolerated”. The Tolerability (Mouse MTD / tolerability; single dose of 50 mg/kg, IP injection) was “well tolerated”.
